test system: Hepatotoxicity; experiment: FDA HLAED, alkaline phosphatase increase; details: human
Wherever GGT Increase - Index Value is given: reference of the scale not given here.
Wherever LDH Increase - Index Value is given: reference of the scale not given here.

Row | SMILES | Alkaline Phosphatase Increase - Activity Score | Alkaline Phosphatase Increase - Index Value | Alkaline Phosphatase Increase - Number of Reports
1 | CCOC(=O)[C@H](CCc1ccccc1)N[C@@H](C)C(=O)N1Cc2cc(OC)c(OC)cc2C[C@H]1C(=O)O [MOEXIPRIL] | Inactive | 0 | < 4
2 | C[C@@H]1C[C@H]2[C@@H]3CCC4=CC(=O)C=C[C@]4(C)[C@@]3(Cl)[C@@H](O)C[C@]2(C)[C@@]1(O)C(=O)CCl [MOMETASONE] | Inactive | 0 | < 4
3 | CCOC(=O)Nc1ccc2c(c1)N(C(=O)CCN1CCOCC1)c1ccccc1S2 [MORICIZINE] | Inactive | 3.4 | < 4
4 | C/C(=C\C(=O)OCCCCCCCCC(=O)O)C[C@@H]1OC[C@H](C[C@@H]2O[C@H]2[C@@H](C)[C@H](C)O)[C@@H](O)[C@H]1O [MUPIROCIN] | Inactive | 0 | < 4
5 | COc1c(C)c2c(c(O)c1C/C=C(\C)CCC(=O)O)C(=O)OC2 [MYCOPHENOLIC ACID] | Inactive | 5.7 | < 4
6 | CCCCCCC(C)(C)c1cc(O)c2c(c1)OC(C)(C)C1CCC(=O)CC21 (configuration not stated) [NABILONE] | Inactive | 0 | < 4
7 | COc1ccc2cc(CCC(C)=O)ccc2c1 [NABUMETONE] | Inactive | 0.8 | >= 4
8 | CC(C)(C)NCC(O)COc1cccc2c1CC(O)C(O)C2 (configuration not stated) [NADOLOL] | Inactive | 0.3 | < 4
9 | CN(C/C=C/c1ccccc1)Cc1cccc2ccccc12 [NAFTIFINE] | Inactive | 0 | < 4

test system: Hepatotoxicity; experiment: FDA HLAED, liver enzyme composite activity; details: human

Row | SMILES | Composite Activity - Active | Composite Activity - Marginal | Composite Activity - Score
10 | CCOC(=O)[C@H](CCc1ccccc1)N[C@@H](C)C(=O)N1Cc2cc(OC)c(OC)cc2C[C@H]1C(=O)O [MOEXIPRIL] | 0 | 0 | Inactive
11 | C[C@@H]1C[C@H]2[C@@H]3CCC4=CC(=O)C=C[C@]4(C)[C@@]3(Cl)[C@@H](O)C[C@]2(C)[C@@]1(O)C(=O)CCl [MOMETASONE] | 0 | 0 | Inactive
12 | CCOC(=O)Nc1ccc2c(c1)N(C(=O)CCN1CCOCC1)c1ccccc1S2 [MORICIZINE] | 1 | 0 | Inactive
13 | C/C(=C\C(=O)OCCCCCCCCC(=O)O)C[C@@H]1OC[C@H](C[C@@H]2O[C@H]2[C@@H](C)[C@H](C)O)[C@@H](O)[C@H]1O [MUPIROCIN] | 0 | 0 | Inactive
14 | COc1c(C)c2c(c(O)c1C/C=C(\C)CCC(=O)O)C(=O)OC2 [MYCOPHENOLIC ACID] | 1 | 0 | Inactive
15 | CCCCCCC(C)(C)c1cc(O)c2c(c1)OC(C)(C)C1CCC(=O)CC21 (configuration not stated) [NABILONE] | 0 | 0 | Inactive
16 | COc1ccc2cc(CCC(C)=O)ccc2c1 [NABUMETONE] | 0 | 0 | Inactive
17 | CC(C)(C)NCC(O)COc1cccc2c1CC(O)C(O)C2 (configuration not stated) [NADOLOL] | 0 | 0 | Inactive

same assay, conditions: human, Liver

Row | SMILES | Composite Activity - Active | Composite Activity - Marginal | Composite Activity - Score
18 | CN(C/C=C/c1ccccc1)Cc1cccc2ccccc12 [NAFTIFINE] | 0 | 0 | Inactive

test system: Hepatotoxicity; experiment: FDA HLAED, serum glutamic oxaloacetic transaminase (SGOT) increase; details: human

Row | SMILES | SGOT Increase - Activity Score | SGOT Increase - Index Value | SGOT Increase - Number of Reports
19 | CCOC(=O)[C@H](CCc1ccccc1)N[C@@H](C)C(=O)N1Cc2cc(OC)c(OC)cc2C[C@H]1C(=O)O [MOEXIPRIL] | Inactive | 1.3 | < 4
20 | C[C@@H]1C[C@H]2[C@@H]3CCC4=CC(=O)C=C[C@]4(C)[C@@]3(Cl)[C@@H](O)C[C@]2(C)[C@@]1(O)C(=O)CCl [MOMETASONE] | Inactive | 0 | < 4
21 | CCOC(=O)Nc1ccc2c(c1)N(C(=O)CCN1CCOCC1)c1ccccc1S2 [MORICIZINE] | Active | 13.7 | >= 4
22 | C/C(=C\C(=O)OCCCCCCCCC(=O)O)C[C@@H]1OC[C@H](C[C@@H]2O[C@H]2[C@@H](C)[C@H](C)O)[C@@H](O)[C@H]1O [MUPIROCIN] | Inactive | 0 | < 4
23 | COc1c(C)c2c(c(O)c1C/C=C(\C)CCC(=O)O)C(=O)OC2 [MYCOPHENOLIC ACID] | Inactive | 3.8 | < 4
24 | CCCCCCC(C)(C)c1cc(O)c2c(c1)OC(C)(C)C1CCC(=O)CC21 (configuration not stated) [NABILONE] | Inactive | 0 | < 4
25 | COc1ccc2cc(CCC(C)=O)ccc2c1 [NABUMETONE] | Inactive | 0.6 | >= 4
26 | CC(C)(C)NCC(O)COc1cccc2c1CC(O)C(O)C2 (configuration not stated) [NADOLOL] | Inactive | 0.7 | >= 4
27 | CN(C/C=C/c1ccccc1)Cc1cccc2ccccc12 [NAFTIFINE] | Inactive | 0 | < 4

test system: Hepatotoxicity; experiment: FDA HLAED, gamma-glutamyl transferase (GGT) increase; details: human

Row | SMILES | GGT Increase - Activity Score | GGT Increase - Index Value | GGT Increase - Number of Reports
28 | CCOC(=O)[C@H](CCc1ccccc1)N[C@@H](C)C(=O)N1Cc2cc(OC)c(OC)cc2C[C@H]1C(=O)O [MOEXIPRIL] | Inactive | 0 | < 4
29 | C[C@@H]1C[C@H]2[C@@H]3CCC4=CC(=O)C=C[C@]4(C)[C@@]3(Cl)[C@@H](O)C[C@]2(C)[C@@]1(O)C(=O)CCl [MOMETASONE] | Inactive | 0 | < 4
30 | CCOC(=O)Nc1ccc2c(c1)N(C(=O)CCN1CCOCC1)c1ccccc1S2 [MORICIZINE] | Inactive | 0 | < 4
31 | C/C(=C\C(=O)OCCCCCCCCC(=O)O)C[C@@H]1OC[C@H](C[C@@H]2O[C@H]2[C@@H](C)[C@H](C)O)[C@@H](O)[C@H]1O [MUPIROCIN] | Inactive | 0 | < 4
32 | COc1c(C)c2c(c(O)c1C/C=C(\C)CCC(=O)O)C(=O)OC2 [MYCOPHENOLIC ACID] | Inactive | 3.8 | < 4
33 | CCCCCCC(C)(C)c1cc(O)c2c(c1)OC(C)(C)C1CCC(=O)CC21 (configuration not stated) [NABILONE] | Inactive | 0 | < 4
34 | COc1ccc2cc(CCC(C)=O)ccc2c1 [NABUMETONE] | Inactive | 0.5 | >= 4
35 | CC(C)(C)NCC(O)COc1cccc2c1CC(O)C(O)C2 (configuration not stated) [NADOLOL] | Inactive | 0 | < 4
36 | CN(C/C=C/c1ccccc1)Cc1cccc2ccccc12 [NAFTIFINE] | Inactive | 0 | < 4

test system: Hepatotoxicity; experiment: FDA HLAED, serum glutamic pyruvic transaminase (SGPT) increase; details: human

Row | SMILES | SGPT Increase - Activity Score | SGPT Increase - Index Value | SGPT Increase - Number of Reports
37 | CCOC(=O)[C@H](CCc1ccccc1)N[C@@H](C)C(=O)N1Cc2cc(OC)c(OC)cc2C[C@H]1C(=O)O [MOEXIPRIL] | Inactive | 1.3 | < 4
38 | C[C@@H]1C[C@H]2[C@@H]3CCC4=CC(=O)C=C[C@]4(C)[C@@]3(Cl)[C@@H](O)C[C@]2(C)[C@@]1(O)C(=O)CCl [MOMETASONE] | Inactive | 0 | < 4
39 | CCOC(=O)Nc1ccc2c(c1)N(C(=O)CCN1CCOCC1)c1ccccc1S2 [MORICIZINE] | Inactive | 3.4 | < 4
40 | C/C(=C\C(=O)OCCCCCCCCC(=O)O)C[C@@H]1OC[C@H](C[C@@H]2O[C@H]2[C@@H](C)[C@H](C)O)[C@@H](O)[C@H]1O [MUPIROCIN] | Inactive | 0 | < 4
41 | COc1c(C)c2c(c(O)c1C/C=C(\C)CCC(=O)O)C(=O)OC2 [MYCOPHENOLIC ACID] | Active | 9.6 | >= 4
42 | CCCCCCC(C)(C)c1cc(O)c2c(c1)OC(C)(C)C1CCC(=O)CC21 (configuration not stated) [NABILONE] | Inactive | 0 | < 4
43 | COc1ccc2cc(CCC(C)=O)ccc2c1 [NABUMETONE] | Inactive | 0.6 | >= 4
44 | CC(C)(C)NCC(O)COc1cccc2c1CC(O)C(O)C2 (configuration not stated) [NADOLOL] | Inactive | 0.7 | >= 4
45 | CN(C/C=C/c1ccccc1)Cc1cccc2ccccc12 [NAFTIFINE] | Inactive | 0 | < 4

test system: Hepatotoxicity; experiment: FDA HLAED, lactate dehydrogenase (LDH) increase; details: human

Row | SMILES | LDH Increase - Activity Score | LDH Increase - Index Value | LDH Increase - Number of Reports
46 | CCOC(=O)[C@H](CCc1ccccc1)N[C@@H](C)C(=O)N1Cc2cc(OC)c(OC)cc2C[C@H]1C(=O)O [MOEXIPRIL] | Inactive | 0 | < 4
47 | C[C@@H]1C[C@H]2[C@@H]3CCC4=CC(=O)C=C[C@]4(C)[C@@]3(Cl)[C@@H](O)C[C@]2(C)[C@@]1(O)C(=O)CCl [MOMETASONE] | Inactive | 0 | < 4
48 | CCOC(=O)Nc1ccc2c(c1)N(C(=O)CCN1CCOCC1)c1ccccc1S2 [MORICIZINE] | Inactive | 3.4 | < 4
49 | C/C(=C\C(=O)OCCCCCCCCC(=O)O)C[C@@H]1OC[C@H](C[C@@H]2O[C@H]2[C@@H](C)[C@H](C)O)[C@@H](O)[C@H]1O [MUPIROCIN] | Inactive | 0 | < 4
50 | COc1c(C)c2c(c(O)c1C/C=C(\C)CCC(=O)O)C(=O)OC2 [MYCOPHENOLIC ACID] | Inactive | 1.9 | < 4
51 | CCCCCCC(C)(C)c1cc(O)c2c(c1)OC(C)(C)C1CCC(=O)CC21 (configuration not stated) [NABILONE] | Inactive | 0 | < 4
52 | COc1ccc2cc(CCC(C)=O)ccc2c1 [NABUMETONE] | Inactive | 0.3 | >= 4
53 | CC(C)(C)NCC(O)COc1cccc2c1CC(O)C(O)C2 (configuration not stated) [NADOLOL] | Inactive | 0 | < 4
54 | CN(C/C=C/c1ccccc1)Cc1cccc2ccccc12 [NAFTIFINE] | Inactive | 0 | < 4
